Counter-ions that a name gives are not always drawn.
How the values were obtained:
[1] = test system: HIF-1α; test: Immunohistochemical staining of HIF-1α in orthotopic 4T1ODD-luc tumors; type: in vivo, mice; conditions: MTD doxorubicin vs saline, post-treatment days 1, 4, and 7
Description: (§1) Five mice from a doxorubicin-treated group or a control group that received saline were sacrificed on days 0, 1, 4, 7 and 16. The hypoxia marker pimonidazole (70 mg/kg i.p., NPI, Raleigh, N.C., United States of America) and the perfusion marker dye Hoechst 33342 (1 mg/mouse i.v., Sigma-Aldrich) were administered as previously described (Cao et al., 2005). Upon excision, tumors were snap-frozen in liquid nitrogen, stored at −80° C., and cut into 10 μm frozen sections. HIF-1α fluorescent staining was performed with anti-HIF-1α antibody (Novus). Direct pimonidazole labeling was performed using Hypoxyprobe (mouse monoclonal IgG1, NPI, Raleigh, N.C., United States of America) and Zenon Alexa Fluor 555 mouse IgG labeling kit (Invitrogen). Entire tumor sections were imaged by scanning fluorescent microscopy. Individual scanned images were then reconstructed into one composite image of the entire section by Metamorph. […] Eight random fields (10×) per frozen section were analyzed to determine the mean tumor vascular fraction as the percentage of vessel area in total tumor area in each field. Cell proliferation was determined by immunostaining with a rabbit polyclonal anti-Ki67 antibody (ab15580, 1:100 dilution, Abcam, Cambridge, Massachusettes, United States of America) and an Alexa 594-conjugated goat anti-rabbit IgG antibody (1:300 dilution, Invitrogen). […]

[2] = test system: tumor-activated macrophages; test: CD68 staining of tumor-activated macrophages in orthotopic 4T1ODD-luc tumors; type: in vivo, mice; conditions: doxorubicin-treated vs saline-treated tumors
Description: as §1

[3] = test system: HIF-1α; test: HIF-1α ODD-luciferase reporter in normoxic 4T1ODD-luc cells; type: cell-based, mouse
Description: (§2) HIF-1α ODD-luciferase reporter activity was detected and quantified by the Xenogen IVIS bioluminescence imaging system (Xenogen Corporation, Alameda, Calif., United States of America) as previously described (Li et al., 2007). For in vitro imaging of cultured cells, 1×10^5 4 T1ODD-luc cells per well of 12-well plates were cultured with 2 ml culture medium for 24 hours. Then the cells were treated with doxorubicin hydrochloride (0.1, 1, or 10 μg/ml, Bedford Laboratories, Bedford, Ohio, United States of America) or an equal volume of control vehicle for 3 days under normoxic conditions (21% O2, 5% CO2). […] The activity of HIF-1α luciferase reporter was quantified daily. In animal studies, the bioluminescence of each tumor was detected on day 0 (before doxorubicin treatment) and on post-treatment days 1-7, 10, 13, and 16. During each imaging session mice were anesthetized with inhaled isoflurane and imaged 10 minutes after intraperitoneal (i.p.) injection of luciferin (150 mg/kg). Tumor bioluminescence intensity was normalized to the tumor volume at each time point.

[4] = test system: perfused tumor fraction; test: Hoechst 33342 labeling of tumor perfusion in orthotopic 4T1ODD-luc tumors; type: in vivo, mice; conditions: doxorubicin-treated vs control tumors
Description: as §1

[5] = test system: hypoxic tumor fraction; test: Pimonidazole staining of tumor hypoxia in orthotopic 4T1ODD-luc tumors; type: in vivo, mice; conditions: doxorubicin-treated vs control tumors
Description: as §1

[6] = test system: HIF-1α; test: Western blotting of HIF-1α in 4T1ODD-luc cells; type: cell-based, mouse; conditions: normoxic, total cell lysate and nuclear extraction, 48 hours post-treatment
Description: (§3) Cell nuclear proteins were extracted using the NucBuster protein extraction kit (Novagen, Gibbstown, N.J., United States of America). Total cell lysates or cell nuclear extractions were quantified using a protein assay reagent (Bio-Rad). Equal amounts of protein sample were separated by Bis-HCl gel (Bio-Rad) and transferred to a […] Immun-Blot PVDF membrane (Bio-Rad).

[7] = test system: iNOS; test: Western blotting of iNOS in 4T1ODD-luc cells; type: cell-based, mouse
Description: as §3

[8] = test system: STAT1; test: Western blotting of STAT1 and phospho-STAT1 in 4T1ODD-luc cells; type: cell-based, mouse; conditions: doxorubicin 1 μg/ml
Description: as §3

[9] = test system: HIF-1α; test: Western blotting of HIF-1α in MCF-7 cells; type: cell-based, human; conditions: normoxic MCF-7 cells
Description: as §3

[10] = test system: iNOS; test: Real-time PCR of iNOS mRNA in 4T1ODD-luc cells; type: cell-based, mouse; conditions: doxorubicin vs control treatment
Description: Total RNA was prepared using the miRVana extraction kit (Applied Biosystems, Austin, Tex., United States of America). 1 μg of total RNA was reverse transcribed into cDNA using the iScript cDNA synthesis kit (BioRad, Hercules, Calif., United States of America). Real-time PCR was performed on an ABI7900HT Fast Real-Time PCR System using Power SYBRGreen PCR Mix (Applied Biosystems). PCR products were verified by melting curves. The threshold cycle (CT) values for each gene were normalized to expression levels of β-actin. The primers used were as follows: mouse iNOS, forward 5′-[…]-3′ (SEQ ID NO: 22); reverse 5′-[…]-3′ (SEQ ID NO: 23); the same β-actin primers were used for both human and mouse cell lines, forward 5′-[…]-3′ (SEQ ID NO: 24); and reverse 5′-[…]-3′ (SEQ ID NO: 25).

[11] = test system: HIF-1α; test: Bioluminescent imaging of orthotopic 4T1ODD-luc tumors in nude mice; type: in vivo
Description: as §2
5×10^6 4 T1ODD-luc tumor cells in 200 μl PBS were injected orthotopically in the right thoracic mammary fat pad of female NCr/nu nude mice (Moeller et al., 2004). Tumor volumes were calculated as follows: volume=(length×width^2×π)/6. When tumor size reached 7 mm in diameter, animals were randomized into two groups: the control mice were injected with 100 μl saline and the treated mice were injected once with the maximal tolerated dose (MTD) of doxorubicin (10 mg/kg) via tail vein (Vanhoefer et al., 1997). Tumor volume and luciferase reporter activity in vivo were measured on days 0, 1-7, 10, 13 and 16.

[12] = test system: tumor vasculature; test: Fluorescent staining of tumor vasculature in orthotopic 4T1ODD-luc tumors; type: in vivo, mice
Description: Five mice from a doxorubicin-treated group or a control group that received saline were sacrificed on days 0, 1, 4, 7 and 16. The hypoxia marker pimonidazole (70 mg/kg i.p., NPI, Raleigh, N.C., United States of America) and the perfusion marker dye Hoechst 33342 (1 mg/mouse i.v., Sigma-Aldrich) were administered as previously described (Cao et al., 2005). Upon excision, tumors were snap-frozen in liquid nitrogen, stored at −80° C., and cut into 10 μm frozen sections. HIF-1α fluorescent staining was performed with anti-HIF-1α antibody (Novus). Direct pimonidazole labeling was performed using Hypoxyprobe (mouse monoclonal IgG1, NPI, Raleigh, N.C., United States of America) and Zenon Alexa Fluor 555 mouse IgG labeling kit (Invitrogen). Entire tumor sections were imaged by scanning fluorescent microscopy. Individual scanned images were then reconstructed into one composite image of the entire section by Metamorph. Tumor vasculature was stained by fluorescein-labeled Griffonia simplicifolia lectin I (isolectin B4) (1:200 dilution, Vector Laboratories, Burlingame, Calif., United States of America) as previously described (Cao et al., 2007). Eight random fields (10×) per frozen section were analyzed to determine the mean tumor vascular fraction as the percentage of vessel area in total tumor area in each field. Cell proliferation was determined by immunostaining with a rabbit polyclonal anti-Ki67 antibody (ab15580, 1:100 dilution, Abcam, Cambridge, Massachusettes, United States of America) and an Alexa 594-conjugated goat anti-rabbit IgG antibody (1:300 dilution, Invitrogen). Tumor activated macrophages were stained with rat anti-mouse CD68 antibody (1:100 dilution, Serotec, Raleigh, N.C., United States of America) and an Alexa 488-conjugated anti-rat IgG antibody (1:200 dilution, Invitrogen).

[13] = test system: VEGF; test: Mouse VEGF ELISA of 4T1ODD-luc conditioned medium; type: cell-based; conditions: normoxic, doxorubicin 0.1, 1, and 10 μg/ml
Description: 1×10^5 4 T1ODD-luc cells per well of 12-well plate were cultured with 1 ml cell culture medium overnight. The cells were treated with 0.1, 1, or 10 μg/ml of doxorubicin or without doxorubicin for 24, 48, and 72 hours. Secreted mouse VEGF in the conditioned medium at each time point was quantified by mouse VEGF ELISA kit (R & D Systems, Minneapolis, Minn., United States of America) and normalized to the number of living cells.

[14] = test system: nitric oxide; test: Flow cytometry of intracellular nitric oxide (DAF-FM) in 4T1ODD-luc cells; type: cell-based, mouse; conditions: 1 μg/ml and 5 μg/ml doxorubicin, 48 hours, vs control
Description: To detect intracellular nitric oxide levels, 1×10^6 4 T1ODD-luc cells were plated per 10-cm cell culture dish with 8 ml of cell culture medium. Doxorubicin (1 μg/ml and 5 μg/ml) or an equal volume of control solvent was added into the cell culture medium the next day and treatment continued for 48 hours. […] Equal amounts of solvent were added for the control group. To quantify intracellular nitric oxide, a single cell suspension was made after trypsinization. 2 ml of 5 uM nitric oxide-specific probe DAF-FM diacetate (4-amino-5-methylamino-2′,7′-difluorofluorescein diacetate) (Invitrogen) were incubated with each cell sample at room temperature in darkness for 30 minutes. The cells were washed with PBS and centrifuged to remove the excess DAF-FM diacetate probe. The cells were resuspended into 500 ul of phenol-free DMEM and incubated for another 20 minutes for complete intracellular deacetylation of the probe. The mean fluorescence intensity of the deacetylated DAF-FM reacted with nitric oxide was quantified by FACSCalibur flow cytometer in FITC channel (Becton Dickinson, Franklin Lakes, N.J., United States of America).

SMILES: COc1cccc2c1C(=O)c1c(O)c3c(c(O)c1C2=O)C[C@@](O)(C(=O)CO)C[C@@H]3O[C@H]1C[C@H](N)[C@H](O)[C@H](C)O1 [doxorubicin, doxorubicin hydrochloride]
- tumor HIF-1α positive fraction [1]: significantly increased the HIF-1α fraction
- fraction of tumor-activated macrophages (CD68) [2]: no significant difference
- HIF-1α reporter activity, comparison of concentrations ([3]; 1 μg/ml doxorubicin): most potent upregulation
- HIF-1α reporter activity ([3]; doxorubicin 0.1, 1, or 10 μg/ml, 48 hours post-treatment): significant increase in HIF-1α reporter activity
- perfused tumor fraction (Hoechst 33342 labeling) [4]: no significant difference
- hypoxic tumor fraction (pimonidazole staining) [5]: no significant difference
- HIF-1α protein expression [6]: enhanced
- iNOS expression ([7]; doxorubicin 1 μg/ml, normoxic conditions): stimulated iNOS expression
- iNOS expression ([7]; doxorubicin alone, first 24 hours post-treatment): initial decrease in iNOS expression
- iNOS expression ([7]; doxorubicin, 48 hours post-treatment): increase in iNOS expression
- STAT1 expression [8]: upregulated the expression of STAT1
- STAT1 phosphorylation (Tyr701 and Ser727) [8]: promoted the activation of STAT1
- HIF-1α protein [9]: led to normoxic HIF-1α accumulation
- iNOS mRNA level [10]: significantly enhanced iNOS transcription
- HIF-1α reporter activity in tumors on day 16 ([11]; doxorubicin 10 mg/kg i.v. once vs saline, day 16): fell to a level similar to that in the control tumors
- HIF-1α reporter activity in tumors ([11]; doxorubicin 10 mg/kg i.v. once vs saline, from 3 days post-treatment): significantly elevated the HIF-1α reporter activity
- peak in HIF-1 activation after doxorubicin treatment ([11]; in vivo): 3 to 5 days
- temporal course of doxorubicin-induced normoxic HIF-1α accumulation ([11]; mouse, in vivo): 3-5 days post-treatment
- relative tumor vascular fraction ([12]; doxorubicin vs control, first 24 hours): significant decrease in tumor vascular fraction
- tumor vessels by fluorescent staining ([12]; doxorubicin vs saline, day 4 post-treatment): more tumor vessels
- relative tumor vascular fraction ([12]; doxorubicin vs saline, day 16): still significantly higher compared to the saline-treated tumors
- mean relative tumor vascular fraction ([12]; doxorubicin-treated tumors, post-treatment day 4 (peak)): even higher than before chemotherapy treatment
- secreted VEGF level [13]: significantly elevated the secreted VEGF level
- intracellular NO levels [14]: increased intracellular NO levels
